Measurements reported in patent US20210263120A1, “METHOD OF PERSONALIZED TREATMENT FOR CARDIOMYOPATHY AND HEART FAILURE AND ASSOCIATED DISEASES BY MEASURING EDEMA AND CACHEXIA/SARCOPENIA” (priority 2018, published 2021).

Columns and labels:
[1] = humans; cited from earlier work
[2] = system: female mice with dilated cardiomyopathy (DCM); assay: Body composition by quantitative magnetic resonance (QMR, EchoMRI); type: in vivo, mouse
From the text: (§1) Mice: Dilated cardiomyopathy (DCM) is a major cause of HF, which is associated with pathological dilation of the heart ventricles and declines in heart contractile or systolic function. A well-established, translational mouse model of DCM with reduced ejection fraction (rEF) fulfills the criteria of the American Heart Association Scientific Statement for Animal Models of Heart Failure was utilized in the examples below. The mice used for this study were randomly assigned female littermates with or without (DCM on a C57BL/6 background. DCM mice express a transgene dominant-negative CREB transcription factor specific to cardiomyocytes and consistently develop the progressive stages (A-D) of HF similar to those described for humans. In female mice with DCM renal function remains within a normal range up to the terminal HF stage, as measured by plasma BUN and creatinine. DCM+vehicle (n=28) and DCM+DRI (n=29) were compared to each other. A group of congenic WT mice (n=20) was used for reference. In sub-groups of 90-day old mice (n=8/group), terminal blood was collected via cardiocentesis with ethylenediaminetetraacetic acid (EDTA)-aprotinin syringes to prevent proteolysis of targeted proteins and dissected organs were weighed. The blood samples were centrifuged at 3000 rpm for 20 min at 4° C. Plasma samples were aliquoted and stored at −80° C. until analysis. All analysis and health/death reports were recorded by investigators and animal facility technicians who were blinded to the mouse genotype.
(§2) Aliskiren water was provided ad libitum throughout life.
Body Composition: Body composition was objectively quantified by a single-blinded and experienced operator. Bodyweight, free water (systemic extracellular water, ECW), total water, body fat, and lean mass were recorded longitudinally. Mice were measured every tenth day between 50-100 days using quantitative magnetic resonance (QMR) technology with an EchoMRI™ 4-in-1 Analyzer (Echo Medical Systems, Houston, Tex., USA). The machine was calibrated daily per standard operating procedure using the provided canola oil (54.3 g) phantom. Briefly, mice were weighed (Scout Pro SP401, Ohaus Corporation, Pine Brook, N.J., USA) and loaded into a tube restrainer specific to the system. Mice were fully conscious and minimally restrained throughout each 60-90 s recording and were returned to their home enclosure following measurement.

[3] = system: female mice with dilated cardiomyopathy (DCM); assay: Echocardiography at 90 days in DCM mice; type: in vivo, mouse; conditions: 90 days of age
[4] = system: female mice with dilated cardiomyopathy (DCM); assay: Kaplan-Meier survival of female mice with DCM; type: in vivo, mouse
From the text: as §1, §2
Statistical Analysis: Statistical analyses were performed with GraphPad Prism 7.04 software (GraphPad Software, La Jolla, Calif., USA) using Student's t-test, one-way ANOVA, or two-way ANOVA with Tukey's multiple comparisons test (unless otherwise indicated) and Pearson's correlation. Survival was analyzed using Kaplan-Meier curves with the Mantel-Cox test. Differences were considered significant if p≤0.05. Data are represented as mean±SE.

mouse renin = molecular target: T1, mouse renin (Mus musculus, UniProt P06281); assay: Plasma renin activity assay (FRET) in plasma of treated DCM mice; type: in vivo; conditions: DCM mice at 90 days, vs. untreated DCM control
T1 construct: Renin enzymatic activity from EDTA-aprotinin supplemented mouse plasma samples; from tissue
T1 sequence (P06281 72-402): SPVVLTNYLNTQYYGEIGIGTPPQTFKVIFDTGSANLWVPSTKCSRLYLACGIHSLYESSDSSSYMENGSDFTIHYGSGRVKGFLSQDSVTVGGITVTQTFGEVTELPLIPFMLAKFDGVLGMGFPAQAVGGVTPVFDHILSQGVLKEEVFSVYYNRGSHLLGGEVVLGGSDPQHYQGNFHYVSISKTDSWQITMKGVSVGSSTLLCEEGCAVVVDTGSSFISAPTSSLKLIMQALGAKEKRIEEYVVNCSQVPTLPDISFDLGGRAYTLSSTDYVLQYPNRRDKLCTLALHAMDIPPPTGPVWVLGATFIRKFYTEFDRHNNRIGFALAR
Protocol: Plasma samples were aliquoted and stored at −80° C. until analysis.

[5] = 100 mg/kg/day orally via drinking water, throughout the treatment period
Protocol: Dose calculations were based on an average consumption of 5 mL of water/day/mouse. […] The oral dose was chosen to closely mimic the human route of delivery, while not altering the blood pressure, associated with elevated plasma Ang II-aldosterone levels, given the low bioavailability of the drug in rodents. […] The administration was started at 50 days of age to coincide with the previously identified timeline of increased renin activity and development of stage B HF in female DCM mice]. […] All untreated mice (WT and DCM+vehicle) received ad lib 3 ppm hyperchlorinated facility water via an automated watering system (Edstrom, Waterford, Wis., USA).

plasma aldosterone = assay: Enzyme immunoassay of plasma aldosterone in treated DCM mice; type: in vivo, mouse; conditions: DCM mice at 90 days, vs. untreated DCM control
From the text: as §1, with “The blood samples were centrifuged at 3000 rpm for 20 min at 4° C. Plasma samples were aliquoted and stored at −80° C. until analysis.” left out, “genotype. […]” for “genotype.”

[6] = system: female mice with dilated cardiomyopathy (DCM); assay: Morphometric changes (heart and lung weight to body weight) at 90 days; type: in vivo, mouse; conditions: 90 days of age
From the text: as §1, with “The blood samples were centrifuged at 3000 rpm for 20 min at 4° C. Plasma samples were aliquoted and stored at −80° C. until analysis.” left out, “genotype. […]” for “genotype.”

With `COCCCOc1cc(C[C@@H](C[C@H](N)[C@@H](O)C[C@H](C(=O)NCC(C)(C)C(N)=O)C(C)C)C(C)C)ccc1OC` [aliskiren, aliskiren hemifumarate] as the compound, how does the bioavailability [1] read?
The bioavailability was “low”.

What about the “systemic extracellular water (ECW)” value ([2]; 100 days of age, QMR) of the same compound?
Its value is “significantly higher in DCM+vehicle vs. DCM+DRI mice”.

What about the “combined fat and lean mass (wasting/cachexia)” value ([2]; 100 days, QMR) of the same compound?
Its value is “combined losses of fat and lean mass in DCM control mice by 100 days relative to WT (p<0.0001) and DCM+DRI mice”.

And the lean body mass ([2]; 100 days, QMR)?
Its lean body mass is “significant decline in lean body mass in DCM control mice at 100 days, consistent with sarcopenia, by comparison to DCM+DRI and WT mice”.

What about the “development of Stage C HF / ECW accumulation (edema)” value ([2]; DCM+DRI vs. DCM+vehicle) of the same compound?
The value was “delayed development of Stage C HF”.

And the body weights ([2]; at 90 days)?
The body weights was “not significantly different between groups”.

And the body weights ([2]; at 100 days)?
The body weights was “weights appeared to decline in DCM+vehicle controls compared to WT and DCM+DRI mice”.

What about the body fat ([2]; through 100 days, QMR) of the same compound?
Its body fat is “maintenance of fat levels similar to WT through 100 days”.

What about the “absolute increase in EF vs. DCM+vehicle” value [3] of the same compound?
The value was 5%.

What about the heart rate ([3]; anesthetized, control 419±10) of the same compound?
Its heart rate is 469±14 bpm.

And the “cardiac output (CO; mL/min)” value ([3]; vs. DCM control)?
Its value is “improved”.

What about the “ejection fraction (EF %)” value ([3]; vs. DCM control) of the same compound?
Its value is “improved”.

What about the “fractional shortening (FS %)” value ([3]; vs. DCM control) of the same compound?
Its value is “improved”.

What about the “survival gain expressed as human years” value ([4]; assuming an 80-year lifespan) of the same compound?
The value was 5.6 human years.

And the median survival ([4]; female DCM mice, 100 mg/kg/day from 50 days of age, control 103 days)?
The median survival was 110 days.

And the “increase in survival vs. control DCM mice” value ([4]; female DCM mice, median survival +DRI vs. control)?
The value was 7%.

And the plasma renin activity (mouse renin)?
Its plasma renin activity is “significantly reduced elevated plasma renin activity to normal levels”.

What about the “side effects or abnormal clinical observations” value [5] of the same compound?
Its value is “no side effects or abnormal clinical observations”.

And the plasma aldosterone levels (plasma aldosterone)?
Its plasma aldosterone levels is “not modulated by treatment”.

And the “reduction of the gross increase in cardiac weight of control (DCM+vehicle) mice” value [6]?
Its value is 20.4%.
